Source: publication PMC3433414, “Oral Administration of the Pimelic Diphenylamide HDAC Inhibitor HDACi 4b Is Unsuitable for Chronic Inhibition of HDAC Activity in the CNS In Vivo” (PLoS ONE, 2012)

Key:
Settings in all cases: up to 50 µM
Class IIa/HDAC8 HDACs = assay: Cellular HDAC assay, Boc_Lys_TFA substrate, Jurkat E6.1 cells; format: cell-based
Description: Briefly, Jurkat E6.1 cells (obtained from the European Collection of Cell Cultures (ECACC)) were plated into 384 well plates at 75,000 cells/well in cellular assay buffer (RPMI without phenol red, 0.1% Fetal Bovine Serum, 10 mM HEPES, 1 mM Sodium Pyruvate). Compounds of interest were diluted in assay buffer (16-point concentration curve, 1% final DMSO) and were added to wells - unless stated otherwise in the results section - for a 2 h preincubation at 37°C prior to the addition of either 100 µM Boc_Lys_TFA or Boc_Lys_Ac. Cells were incubated for a further 3 h at 37°C, followed by the addition of a trypsin (1 mg/ml) and reference compound (Compound 26 or TSA) stop-step overnight to terminate the reaction and lyse the cells. Fluorescent counts were read the following morning on the Perkin Elmer EnVision. Z’ was 0.8 for both assays, with S:B of 19 for Boc_Lys_Ac assay, and 7 for Boc_Lys_TFA assay.
Each compound was tested in duplicate in concentration-response format on 3 separate days. For both biochemical and cellular assays, data is presented as % inhibition from maximal activity (maximal fluorescence response), which was defined as the fluorescence read in the presence of 1% DMSO, with 100% inhibition defined as the fluorescence read in the presence of substantial excess of the respective reference compounds (5 µM TSA, 50 µM Compound 26 depending on target). […]

HDAC5 = molecular target: T1, HDAC5 (Homo sapiens, UniProt Q9UQL6); assay: Two-step fluorogenic deacetylase assay, recombinant HDAC5; format: biochemical
T1 construct: HDAC5 (αα 657–1123; cat # 50005); purchased BPS Bioscience (San Diego, CA) 50005
Text: (§1) To assess the biochemical and cellular potency of 4b and its conversion products/metabolites, we utilized the two-step fluorogenic assay which measures the HDAC-mediated catalytic conversion of synthetic acetylated lysine substrates. In brief, on deacetylation of the substrates by HDAC activity, a protease site is unmasked which allows subsequent trypsin-mediated cleavage and release of the highly flourescent AMC molecules in a subsequent step of the assay. The substrates used were Lys_Ac_AMC (Bachem I-1875) for HDAC3 and (Ac)Arg-Gly-Lys(Ac) (Bachem I-1925) for HDAC1 and HDAC2. […] However, the relatively labile and sterically more demanding trifluoracetyl group is readily hydrolyzed by the catalytically less avid Class IIa enzymes, allowing measurement of Class IIa activity using the 2-step fluorogenic assay. […]
(§2) For evaluation of the class selectivity of the compounds, we assessed inhibition against purified recombinant human full length HDAC1 (cat# 50051), HDAC2 (cat# 50052), HDAC3-NcoR2 (cat# 50003) and HDAC8 (cat# 50008): as representative of Class I activity; catalytic domain HDAC4(αα 648–1057), HDAC5 (αα 657–1123; cat # 50005), HDAC7 (αα 518-end; cat # 50007) and HDAC9 (αα 604–1066; cat # 50009) activity: representing all Class IIa activity; and full length HDAC6 (cat#50006): representing Class IIb activity. […]

human recombinant HDAC8 = molecular target: T2, human recombinant HDAC8 (Homo sapiens, UniProt Q9BY41); assay: Two-step fluorogenic deacetylase assay, recombinant HDAC8; format: biochemical
T2 construct: purified recombinant human full length HDAC1 (cat# 50051), HDAC2 (cat# 50052), HDAC3-NcoR2 (cat# 50003) and HDAC8 (cat# 50008); purchased BPS Bioscience (San Diego, CA) 50008
Text: as §1, §2

T2 sequence (Q9BY41 whole entry): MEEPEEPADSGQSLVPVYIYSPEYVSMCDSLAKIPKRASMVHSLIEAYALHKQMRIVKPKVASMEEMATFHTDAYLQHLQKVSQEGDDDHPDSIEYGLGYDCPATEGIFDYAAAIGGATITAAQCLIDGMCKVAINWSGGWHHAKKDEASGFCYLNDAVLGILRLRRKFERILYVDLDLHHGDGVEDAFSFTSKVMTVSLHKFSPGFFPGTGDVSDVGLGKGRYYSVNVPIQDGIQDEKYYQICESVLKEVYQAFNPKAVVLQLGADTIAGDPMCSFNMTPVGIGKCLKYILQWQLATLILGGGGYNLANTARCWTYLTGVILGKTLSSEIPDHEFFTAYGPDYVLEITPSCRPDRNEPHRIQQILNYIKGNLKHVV
T1 sequence (Q9UQL6 656-1122): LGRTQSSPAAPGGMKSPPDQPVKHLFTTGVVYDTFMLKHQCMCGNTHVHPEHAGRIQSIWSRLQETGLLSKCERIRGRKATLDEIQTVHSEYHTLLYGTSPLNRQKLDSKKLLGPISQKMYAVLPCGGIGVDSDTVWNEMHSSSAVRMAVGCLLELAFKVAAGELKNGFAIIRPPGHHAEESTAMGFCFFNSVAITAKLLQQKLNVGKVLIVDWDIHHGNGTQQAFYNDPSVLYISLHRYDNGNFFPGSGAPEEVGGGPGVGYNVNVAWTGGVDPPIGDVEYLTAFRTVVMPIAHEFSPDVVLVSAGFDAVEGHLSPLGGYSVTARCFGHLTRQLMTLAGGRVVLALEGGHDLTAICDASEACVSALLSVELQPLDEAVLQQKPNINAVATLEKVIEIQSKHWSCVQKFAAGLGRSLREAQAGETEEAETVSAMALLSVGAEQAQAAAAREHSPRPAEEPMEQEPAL

For `Nc1ccccc1NC(=O)CCCCCC(=O)Nc1ccccc1` [Compound 4b], the “cellular inhibition, Class IIa/HDAC8 substrate” value (Class IIa/HDAC8 HDACs) was “no inhibition”, the “activity against HDAC5” value (HDAC5) was “No activity” and the “activity against HDAC8” value (human recombinant HDAC8) was “No activity”.
